Experimental data as given in US11304943B2, “Combination for use in the treatment of lung cancer” (LDN Pharma Limited, priority 2017, dated 2022).

Assays:
A549 (lung cancer) cells = assay: Cell counting with trypan blue (cell number / cytostasis and cell viability) in A549 cells; format: cell-based
Description: The cytostatic effect upon administration of 6-β-naltrexol (6BN) and naltrexone (NTX) to A549 (lung cancer) and HCT116 (colorectal cancer) cells was studied in vitro. Firstly, A549 and HCT116 cells were seeded into 6-well plates at a density of 2×10^5/well and left to adhere overnight. Cells were then cultured with 0.001 μM, 0.01 μM, 0.1 μM or 1 μM of 6BN or NTX for 48 hours. Experiments were performed alongside a control where cells were not administered with 6-β-naltrexol or naltrexone (FIG. 1).
The viability of cells was then measured by cell counting using trypan blue as a way of discriminating live and dead cells. Cytostasis was indicated by a reduction in cell number and no associated reduction in cell viability.
Next, the effect of co-administration of low dose (10 nM) or high dose (10 μM) 6-β-naltrexol or naltrexone (NTX) alongside calcitriol was investigated. The cytostatic and cytotoxic effect was investigated in both A549 and HCT116 cells. A549 and HCT116 cells were seeded into 6-well plates at a density of 2×10^5/well and left to adhere overnight. The following day low or high dose 6BN or NTX was added to cells in isolation or in combination with calcitriol and incubated for 48 hours. A549 cells were co-administered with 10 nM calcitriol, whereas HCCT116 cells were co-administered 10 nM calcitriol.
Cell viability and cytostasis were then determined as described in example 1.

[1] = test system: HCT116 (colorectal cancer) cells; assay: Cell counting with trypan blue (cell number / cytostasis and cell viability) in HCT116 cells; format: cell-based; conditions: 48 hours

## Oc1ccc2c3c1OC1[C@H](O)CC[C@@]4(O)[C@@H](C2)N(CC2CC2)CC[C@]314 (stereo partly drawn) [6-β-naltrexol, 17-(Cyclopropylmethyl)-4,5-epoxymorphinan-3,6beta,14-triol]
A549 (lung cancer) cells; A549 cells, 10 nM 6BN co-administered with calcitriol, 48 hours
  cytostasis (cell number) upon co-administration with calcitriol: significant reduction in cytostasis
A549 (lung cancer) cells; A549 cells, 10 μM 6BN co-administered with calcitriol, 48 hours
  cytostasis (cell number) upon co-administration with calcitriol: not observed
A549 (lung cancer) cells; A549 cells, 0.001-1 μM, 48 hours, trypan blue
  cell viability: No reduction in cell viability
A549 (lung cancer) cells; A549 lung cancer cells, 0.001-1 μM, 48 hours, single agent
  cytostasis (cell number): selective reduction in cytotostasis in lung cancer cells
[1]; HCT116 cells, 10 nM 6BN co-administered with calcitriol
  cytostasis (cell number) upon co-administration with calcitriol: not observed
[1]; HCT116 cells, 0.001-1 μM, trypan blue
  cell viability: No reduction in cell viability
[1]; HCT116 colorectal cancer cells, 0.001-1 μM, single agent, effect at higher concentrations
  cytostasis (cell number): less pronounced decrease in cytotostasis

## C=C1/C(=C\C=C2/CCC[C@]3(C)[C@@H]([C@H](C)CCCC(C)(C)O)CC[C@@H]23)C[C@@H](O)C[C@@H]1O [Calcitriol, calcitriol, reference compound]
A549 (lung cancer) cells; lung cancer cells, calcitriol administered in isolation
  cytostatic effect of calcitriol in isolation: no independent cytostatic effect

## O=C1CC[C@@]2(O)[C@H]3Cc4ccc(O)c5c4[C@@]2(CCN3CC2CC2)[C@H]1O5 [NTX, naltrexone, reference compound]
[1]; HCT116 cells, 10 nM NTX with 100 nM calcitriol
  cell viability upon combination with calcitriol: reduces the viability
